Assay results published in PubChem BioAssay (NCI).
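48-hour exposure; five concentrations; linearly interpolated endpoints. At the GI50, growth is halved. The concentration for full growth arrest is given as TGI.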

What was measured:
Assay in all cases: NCI tumour cell line growth inhibition, 48 h
[1] = system: ACHN renal
[2] = system: RPMI-8226 leukemia
[3] = system: HCC-2998 colon
[4] = system: SF-295 CNS
[5] = system: HOP-92 NSCLC
[6] = system: MOLT-4 leukemia
[7] = system: UACC-62 melanoma
[8] = system: HOP-62 NSCLC
[9] = system: MDA-MB-435
[10] = system: EKVX NSCLC
[11] = system: SK-MEL-5 melanoma
[12] = system: HL-60(TB) leukemia
[13] = system: COLO 205 colon
[14] = system: A549 NSCLC
[15] = system: IGROV1 ovarian
[16] = system: UO-31 renal
[17] = system: TK-10 renal
[18] = system: HCT-15 colon
[19] = system: K-562 leukemia
[20] = system: OVCAR-8 ovarian
[21] = system: SW-620 colon
[22] = system: SK-MEL-2 melanoma
[23] = system: SN12C renal
[24] = system: DU-145 prostate
[25] = system: NCI-H522 lung
[26] = system: CAKI-1 renal
[27] = system: CCRF-CEM leukemia
[28] = system: T-47D breast
[29] = system: MALME-3M melanoma
[30] = system: SNB-75 CNS
[31] = system: U251 CNS
[32] = system: A498 renal
[33] = system: MCF7 breast
[34] = system: 786-0 renal
[35] = system: SNB-19 CNS
[36] = system: SK-OV-3 ovarian
[37] = system: SK-MEL-28 melanoma
[38] = system: NCI-H226 lung
[39] = system: OVCAR-3 ovarian
[40] = system: UACC-257 melanoma
[41] = system: LOX IMVI melanoma
[42] = system: M14 melanoma
[43] = system: MDA-MB-231 breast
[44] = system: SF-539 CNS
[45] = system: KM12 colon
[46] = system: HCT-116 colon
[47] = system: NCI/ADR-RES ovarian
[48] = system: PC-3 prostate
[49] = system: MDA-N
[50] = system: OVCAR-4 ovarian
[51] = system: HT29 colon
[52] = system: RXF 393 renal
[53] = system: NCI-H23 lung
[54] = system: BT-549 breast
[55] = system: SR leukemia
[56] = system: HS 578T breast
[57] = system: OVCAR-5 ovarian
[58] = system: NCI-H460 lung
[59] = system: SF-268 CNS

O=C(/C(=N/Nc1cn[nH]c(=O)c1Cl)c1ccccc1)c1ccccc1
TGI [1]: > 100 µM | TGI [2]: 60.7 µM | TGI [3]: 76.7 µM | TGI [4]: > 100 µM | TGI [5]: > 100 µM | TGI [6]: 97.2 µM | TGI [7]: 53.5 µM | TGI [8]: > 100 µM | TGI [9]: 32.6 µM | TGI [10]: 83.1 µM | TGI [11]: > 100 µM | TGI [12]: > 100 µM | TGI [13]: 49.4 µM | TGI [14]: > 100 µM | TGI [15]: 75.1 µM | TGI [16]: > 100 µM | TGI [17]: > 100 µM | TGI [18]: 51.3 µM | TGI [19]: > 100 µM | TGI [20]: > 100 µM | TGI [21]: > 100 µM | TGI [22]: > 100 µM | TGI [23]: > 100 µM | TGI [24]: 54.3 µM | TGI [25]: 77.2 µM | TGI [26]: 93.1 µM | TGI [27]: > 100 µM | TGI [28]: 62.7 µM | TGI [29]: > 100 µM | TGI [30]: 71.6 µM | TGI [31]: > 100 µM | TGI [32]: 50.4 µM | TGI [33]: > 100 µM | TGI [34]: 68.7 µM | TGI [35]: > 100 µM | TGI [36]: > 100 µM | TGI [37]: > 100 µM | TGI [38]: > 100 µM | TGI [39]: 56.2 µM | TGI [40]: 80.2 µM | TGI [41]: 66.9 µM | TGI [42]: > 100 µM | TGI [43]: 87.3 µM | TGI [44]: 71.1 µM | TGI [45]: 32.9 µM | TGI [46]: 99.1 µM | TGI [47]: 59.9 µM | TGI [48]: > 100 µM | TGI [49]: 32.8 µM | TGI [50]: > 100 µM | TGI [51]: 59.1 µM | TGI [52]: 47.3 µM | TGI [53]: 66.6 µM

O=C(Nc1cccc(Cl)c1)c1cc(Cl)ccc1O
GI50 [1]: 1.14 µM | TGI [1]: 10.6 µM | GI50 [2]: 0.375 µM | TGI [2]: 2.18 µM | GI50 [3]: 2.94 µM | TGI [3]: > 29.6 µM | GI50 [4]: 1.21 µM | TGI [4]: 3.75 µM | GI50 [5]: 0.169 µM | TGI [5]: 0.571 µM | GI50 [6]: 1.84 µM | TGI [6]: 5.04 µM | GI50 [7]: 0.282 µM | TGI [7]: 1.21 µM | GI50 [8]: 1.33 µM | TGI [8]: 4.03 µM | GI50 [9]: 0.661 µM | TGI [9]: 5.99 µM | GI50 [10]: 1.83 µM | TGI [10]: > 26.3 µM | GI50 [11]: 0.274 µM | TGI [11]: 0.857 µM | GI50 [12]: 0.561 µM | TGI [12]: 3.6 µM | GI50 [54]: 0.362 µM | TGI [54]: 1.29 µM | GI50 [13]: 2.64 µM | TGI [13]: 6.71 µM | GI50 [14]: 2.67 µM | TGI [14]: > 79.3 µM | GI50 [15]: 1.61 µM | TGI [15]: > 58 µM | GI50 [55]: 0.457 µM | TGI [55]: 2.96 µM | GI50 [16]: 0.369 µM | TGI [16]: 7.08 µM | GI50 [17]: 4.36 µM | TGI [17]: 12.6 µM | GI50 [18]: 1.34 µM | GI50 [19]: 0.542 µM | TGI [19]: > 100 µM | GI50 [20]: 1.51 µM | TGI [20]: 5.43 µM | GI50 [21]: 1.36 µM | TGI [21]: 9.85 µM | GI50 [22]: 0.294 µM | TGI [22]: 0.918 µM | GI50 [23]: 0.491 µM | TGI [23]: 4.15 µM | GI50 [24]: 1.66 µM | TGI [24]: > 54.1 µM | GI50 [25]: 0.32 µM | TGI [25]: 1.78 µM | GI50 [26]: 0.837 µM | TGI [26]: 5.79 µM | GI50 [56]: 0.282 µM | TGI [56]: 1.46 µM | GI50 [27]: 2.82 µM | TGI [27]: 22 µM | GI50 [28]: 1.24 µM | TGI [28]: 7.38 µM | GI50 [29]: 0.4 µM | TGI [29]: 2.66 µM | GI50 [30]: 0.756 µM | TGI [30]: 3.86 µM | GI50 [31]: 0.841 µM | TGI [31]: > 38.2 µM | GI50 [32]: 0.256 µM | TGI [32]: 0.764 µM | GI50 [33]: 1.75 µM | TGI [33]: > 26.6 µM | GI50 [34]: 1.63 µM | TGI [34]: 6.18 µM | GI50 [35]: 0.481 µM | TGI [35]: 36.6 µM | GI50 [36]: 0.582 µM | TGI [36]: 2.81 µM | GI50 [37]: 0.415 µM | TGI [37]: 3.77 µM | GI50 [38]: 1.05 µM | TGI [38]: 4.12 µM | GI50 [39]: 1.04 µM | TGI [39]: > 100 µM | GI50 [40]: 0.41 µM | TGI [40]: 2.87 µM | GI50 [41]: 0.543 µM | TGI [41]: 2.26 µM | GI50 [57]: 3.48 µM | TGI [57]: > 100 µM | GI50 [42]: 0.851 µM | TGI [42]: 5.4 µM | GI50 [43]: 1.15 µM | TGI [43]: 8.23 µM | GI50 [58]: 0.488 µM | TGI [58]: 6.4 µM | GI50 [44]: 0.674 µM | TGI [44]: 12.4 µM | GI50 [59]: 1.21 µM | TGI [59]: > 40.3 µM | GI50 [45]: 2.39 µM | TGI [45]: 6.87 µM | GI50 [46]: 0.562 µM | TGI [46]: 2.12 µM | GI50 [47]: 1.64 µM | TGI [47]: > 29.4 µM | GI50 [48]: 2.6 µM | TGI [48]: > 25.2 µM | GI50 [50]: 1.46 µM | TGI [50]: > 100 µM | GI50 [51]: 2.49 µM | TGI [51]: 7.12 µM | GI50 [52]: 0.849 µM | TGI [52]: 4.27 µM | GI50 [53]: 0.486 µM | TGI [53]: 3.55 µM

O=C1C2=C(Nc3cc([N+](=O)[O-])ccc3N2)OC1c1ccc(C2OC3=C(Nc4ccc([N+](=O)[O-])cc4N3)C2=O)cc1 (stereo not given)
GI50 [2]: 53.6 µM | GI50 [4]: 23.3 µM | TGI [4]: 77.3 µM | GI50 [6]: 22 µM | GI50 [7]: 30.4 µM | GI50 [9]: 22.1 µM | TGI [9]: 53.4 µM | GI50 [11]: 38.9 µM | GI50 [12]: 0.184 µM | TGI [12]: 1.09 µM | GI50 [13]: 19.7 µM | TGI [13]: 45.1 µM | GI50 [55]: 19.4 µM | GI50 [19]: 19.1 µM | GI50 [22]: 63.3 µM | GI50 [25]: 6.12 µM | GI50 [28]: 48 µM | GI50 [33]: 53.3 µM | GI50 [37]: 41.8 µM | GI50 [39]: 37.5 µM | GI50 [40]: 28 µM | TGI [40]: 96.8 µM | GI50 [59]: 64.9 µM | GI50 [45]: 26.1 µM | GI50 [46]: 79.9 µM | GI50 [49]: 42.8 µM | GI50 [51]: 98.9 µM
